According to patent US7728028B2, “Substituted imidazoline compounds” (Gruenenthal GmbH, priority 2005, dated 2010):
Read-outs that look alike come from different tables or passages of the source. Each block holds one compound with its values, some of them ahead of it.

Assays:
human μ-opiate receptor = target: T1, human μ-opiate receptor (Homo sapiens, UniProt P35372); assay: Affinity for the human μ-opiate receptor ([3H]-naloxone displacement, SPA); settings: test substance 1 μmole/l, inhibition of specific [3H]-naloxone binding, CHO-K1 membranes, read-out: μ-Opioid receptor, % inhibition [1 μM]
T1 construct: purchased PerkinElmer Life Sciences, Zaventem, Belgium RB-HOM; host or cells: CHO-K1 cells (recombinant expression; membrane preparation)
T1 sequence (P35372 whole entry): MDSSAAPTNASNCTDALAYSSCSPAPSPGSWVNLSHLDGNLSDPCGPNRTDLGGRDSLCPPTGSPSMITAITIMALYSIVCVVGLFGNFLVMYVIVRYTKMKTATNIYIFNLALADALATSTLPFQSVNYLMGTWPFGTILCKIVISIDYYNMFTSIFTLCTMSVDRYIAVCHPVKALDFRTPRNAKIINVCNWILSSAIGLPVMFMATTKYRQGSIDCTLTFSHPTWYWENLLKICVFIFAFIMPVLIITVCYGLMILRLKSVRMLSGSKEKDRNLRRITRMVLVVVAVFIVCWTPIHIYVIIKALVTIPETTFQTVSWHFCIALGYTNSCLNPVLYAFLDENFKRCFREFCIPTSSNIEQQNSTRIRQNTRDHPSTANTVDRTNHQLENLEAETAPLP
Procedure, shortened: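 CHO-K1 membranes expressing the receptor, incubated 90 min at room temperature with 1 nmol/l [3H]-naloxone and WGA-SPA beads in 50 mmol/l Tris-HCl with 0.06% BSA. Non-specific binding defined with 100 μmol/l naloxone. Value is % inhibition of specific binding at 1 μmol/l test substance.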

- melting point: 40 to 43 °C
Compound: CN(C)C(c1cccc(F)c1)C1CCC(C=O)CC1 (centres unmarked)

Compound: COC(=O)CCC1(C(=O)OC)N=CN(CCc2ccccc2)C1C1CCC(C(c2cccc(F)c2)N(C)C)CC1 (centres unmarked) [Example 91, 5-{4-[dimethylamino-(3-fluorophenyl)-methyl]-cyclohexyl}-4-(2-methoxycarbonylethyl)-1-phenethyl-4,5-dihydro-1H-imidazole-4-carboxylic acid methyl ester]
- inhibition at 1 µM (human μ-opiate receptor; Table 2, Examples 11-161): 85%

Compound: CCCN1C=NC(CCC(=O)OC)(C(=O)OC)C1C1CCC(C(c2ccc(Cl)cc2)N(C)C)CC1 (centres unmarked) [Example 59, 5-{4-[(4-chlorophenyl)-dimethylaminomethyl]-cyclohexyl}-4-(2-methoxycarbonylethyl)-1-propyl-4,5-dihydro-1H-imidazole-4-carboxylic acid methyl ester]
- inhibition at 1 µM (human μ-opiate receptor; Table 2, Examples 11-161): 84%

Compound: COC(=O)CCC1(C(=O)OC)N=CN(C2CCCCC2)C1CC1CCC(C(c2ccc(Cl)cc2)N(C)C)CC1 (centres unmarked) [Example 53, 5-{4-[(4-chlorophenyl)-dimethylaminomethyl]-cyclohexylmethyl}-1-cyclohexyl-4-(2-methoxycarbonylethyl)-4,5-dihydro-1H-imidazole-4-carboxylic acid methyl ester]
- inhibition at 1 µM (human μ-opiate receptor; Table 2, Examples 11-161): 96%

Compound: COC(=O)C1(C)N=CN(CCc2ccccc2)C1CC1CCC(C(c2cccc(F)c2)N(C)C)CC1 (centres unmarked) [Example 131, 5-{4-[dimethylamino-(3-fluorophenyl)-methyl]-cyclohexylmethyl}-4-methyl-1-phenethyl-4,5-dihydro-1H-imidazole-4-carboxylic acid methyl ester]
- inhibition at 1 µM (human μ-opiate receptor; Table 2, Examples 11-161): 100%

Compound: COC(=O)CCC1(C(=O)OC)N=CN(C2CCCCC2)C1C1CCC(C(c2ccc(Cl)cc2)N(C)C)CC1 (centres unmarked) [Example 51, 5-{4-[(4-chlorophenyl)-dimethylaminomethyl]-cyclohexyl}-1-cyclohexyl-4-(2-methoxycarbonylethyl)-4,5-dihydro-1H-imidazole-4-carboxylic acid methyl ester]
- inhibition at 1 µM (human μ-opiate receptor; Table 2, Examples 11-161): 96%

Compound: COC(=O)C1(Cc2ccc(Cl)cc2)N=CN(C2CCCCC2)C1CC1CCC(C(c2ccc(Cl)cc2)N(C)C)CC1 (centres unmarked) [Example 18, 4-(4-chlorobenzyl)-5-{4-[(4-chlorophenyl)-dimethylaminomethyl]-cyclohexylmethyl}-1-cyclohexyl-4,5-dihydro-1H-imidazole-4-carboxylic acid methyl ester]
- inhibition at 1 µM (human μ-opiate receptor; Table 2, Examples 11-161): 90%

Compound: COC(=O)C1(CCSC)N=CN(CCc2ccccc2)C1CC1CCC(C(c2cccc(F)c2)N(C)C)CC1 (centres unmarked) [Example 130, 5-{4-[dimethylamino-(3-fluorophenyl)-methyl]-cyclohexylmethyl}-4-(2-methylsulfanylethyl)-1-phenethyl-4,5-dihydro-1H-imidazole-4-carboxylic acid methyl ester]
- inhibition at 1 µM (human μ-opiate receptor; Table 2, Examples 11-161): 97%

Compound: COC(=O)CCC1(C(=O)OC)N=CN(C2CCCCC2)C1CC1CCC(C(c2ccc(F)cc2)N(C)C)CC1 (centres unmarked) [Example 151, 1-cyclohexyl-5-{4-[dimethylamino-(4-fluorophenyl)-methyl]-cyclohexylmethyl}-4-(2-methoxycarbonylethyl)-4,5-dihydro-1H-imidazole-4-carboxylic acid methyl ester]
- inhibition at 1 µM (human μ-opiate receptor; Table 2, Examples 11-161): 95%

Compound: COC(=O)CCC1(C(=O)OC)N=CN(Cc2ccccc2)C1CC1CCC(C(c2cccc(F)c2)N(C)C)CC1 (centres unmarked) [Example 85, 1-benzyl-5-{4-[dimethylamino-(3-fluorophenyl)-methyl]-cyclohexylmethyl}-4-(2-methoxycarbonylethyl)-4,5-dihydro-1H-imidazole-4-carboxylic acid methyl ester]
- inhibition at 1 µM (human μ-opiate receptor; Table 2, Examples 11-161): 95%

Compound: CCCN1C=NC(CCC)(C(=O)OC)C1CC1CCC(C(c2ccc(F)cc2)N(C)C)CC1 (centres unmarked) [Example 118, 5-{4-[dimethylamino-(4-fluorophenyl)-methyl]-cyclohexylmethyl}-1,4-dipropyl-4,5-dihydro-1H-imidazole-4-carboxylic acid methyl ester]
- inhibition at 1 µM (human μ-opiate receptor; Table 2, Examples 11-161): 87%

Compound: COC(=O)C1(CSC)N=CN(C2CCCCC2)C1CC1CCC(C(c2ccc(Cl)cc2)N(C)C)CC1 (centres unmarked) [Example 55, 5-{4-[(4-chlorophenyl)-dimethylaminomethyl]-cyclohexylmethyl}-1-cyclohexyl-4-methylsulfanylmethyl-4,5-dihydro-1H-imidazole-4-carboxylic acid methyl ester]
- inhibition at 1 µM (human μ-opiate receptor; Table 2, Examples 11-161): 91%

Compound: COC(=O)C1(CCSC)N=CN(C2CCCCC2)C1CC1CCC(C(c2ccc(F)cc2)N(C)C)CC1 (centres unmarked) [Example 106, 1-cyclohexyl-5-{4-[dimethylamino-(4-fluorophenyl)-methyl]-cyclohexylmethyl}-4-(2-methylsulfanyl-ethyl)-4,5-dihydro-1H-imidazole-4-carboxylic acid methyl ester]
- inhibition at 1 µM (human μ-opiate receptor; Table 2, Examples 11-161): 92%

Compound: COC(=O)C1(Cc2ccc(Cl)cc2)N=CN(CCc2ccccc2)C1C1CCC(C(c2cccc(F)c2)N(C)C)CC1 (centres unmarked) [Example 38, 4-(4-chlorobenzyl)-5-{4-[dimethylamino-(3-fluorophenyl)-methyl]-cyclohexyl}-1-phenethyl-4,5-dihydro-1H-imidazole-4-carboxylic acid methyl ester]
- inhibition at 1 µM (human μ-opiate receptor; Table 2, Examples 11-161): 84%

Compound: CCCN1C=NC(CCC(=O)OC)(C(=O)OC)C1CC1CCC(C(c2cccc(F)c2)N(C)C)CC1 (centres unmarked) [Example 157, 5-{4-[dimethylamino-(3-fluorophenyl)-methyl]-cyclohexylmethyl}-4-(2-methoxycarbonylethyl)-1-propyl-4,5-dihydro-1H-imidazole-4-carboxylic acid methyl ester]
- inhibition at 1 µM (human μ-opiate receptor; Table 2, Examples 11-161): 91%

Compound: CCCN1C=NC(CSC)(C(=O)OC)C1CC1CCC(C(c2ccc(Cl)cc2)N(C)C)CC1 (centres unmarked) [Example 63, 5-{4-[(4-chlorophenyl)-dimethylaminomethyl]-cyclohexylmethyl}-4-methylsulfanylmethyl-1-propyl-4,5-dihydro-1H-imidazole-4-carboxylic acid methyl ester]
- inhibition at 1 µM (human μ-opiate receptor; Table 2, Examples 11-161): 97%

Compound: COC(=O)CCC1(C(=O)OC)N=CN(CCc2ccccc2)C1CC1CCC(C(c2ccc(Cl)cc2)N(C)C)CC1 (centres unmarked) [Example 94, 5-{4-[(4-chlorophenyl)-dimethylaminomethyl]-cyclohexylmethyl}-4-(2-methoxycarbonylethyl)-1-phenethyl-4,5-dihydro-1H-imidazole-4-carboxylic acid methyl ester]
- inhibition at 1 µM (human μ-opiate receptor; Table 2, Examples 11-161): 97%

Compound: COC(=O)C1(C)N=CN(CCc2ccccc2)C1CC1CCC(C(c2ccc(F)cc2)N(C)C)CC1 (centres unmarked) [Example 134, 5-{4-[dimethylamino-(4-fluorophenyl)-methyl]-cyclohexylmethyl}-4-methyl-1-phenethyl-4,5-dihydro-1H-imidazole-4-carboxylic acid methyl ester]
- inhibition at 1 µM (human μ-opiate receptor; Table 2, Examples 11-161): 92%

Compound: COC(=O)C1(CCSC)N=CN(Cc2ccccc2)C1CC1CCC(C(CCc2ccccc2)N(C)C)CC1 (centres unmarked) [Example 145, 1-benzyl-5-[4-(1-dimethylamino-3-phenylpropyl)-cyclohexylmethyl]-4-(2-methylsulfanyl-ethyl)-4,5-dihydro-1H-imidazole-4-carboxylic acid methyl ester]
- inhibition at 1 µM (human μ-opiate receptor; Table 2, Examples 11-161): 79%

Compound: CCCN1C=NC(CSC)(C(=O)OC)C1CC1CCC(C(c2ccc(F)cc2)N(C)C)CC1 (centres unmarked) [Example 160, 5-{4-[dimethylamino-(4-fluorophenyl)-methyl]-cyclohexylmethyl}-4-methylsulfanylmethyl-1-propyl-4,5-dihydro-1H-imidazole-4-carboxylic acid methyl ester]
- inhibition at 1 µM (human μ-opiate receptor; Table 2, Examples 11-161): 74%

Compound: CCCCN1C=NC(CC(C)C)(C(=O)OC)C1C1CCC(C(c2cccc(F)c2)N(C)C)CC1 (centres unmarked) [Example 29, 1-butyl-5-{4-[dimethylamino-(3-fluorophenyl)-methyl]-cyclohexyl}-4-isobutyl-4,5-dihydro-1H-imidazole-4-carboxylic acid methyl ester]
- inhibition at 1 µM (human μ-opiate receptor; Table 2, Examples 11-161): 89%

Compound: CCCCN1C=NC(CSC)(C(=O)OC)C1C1CCC(C(c2cccc(F)c2)N(C)C)CC1 (centres unmarked) [Example 66, 1-butyl-5-{4-[dimethylamino-(3-fluorophenyl)-methyl]-cyclohexyl}-4-methylsulfanylmethyl-4,5-dihydro-1H-imidazole-4-carboxylic acid methyl ester]
- inhibition at 1 µM (human μ-opiate receptor; Table 2, Examples 11-161): 89%

Compound: CCCCN1C=NC(CC(C)C)(C(=O)OC)C1C1CCC(C(c2ccc(Cl)cc2)N(C)C)CC1 (centres unmarked) [Example 31, 1-butyl-5-{4-[(4-chlorophenyl)-dimethylaminomethyl]-cyclohexyl}-4-isobutyl-4,5-dihydro-1H-imidazole-4-carboxylic acid methyl ester]
- inhibition at 1 µM (human μ-opiate receptor; Table 2, Examples 11-161): 91%

Compound: COC(=O)C1(CSCc2ccccc2)N=CN(Cc2ccccc2)C1CC1CCC(C(c2ccc(Cl)cc2)N(C)C)CC1 (centres unmarked) [Example 101, 1-benzyl-4-benzylsulfanylmethyl-5-{4-[(4-chlorophenyl)-dimethylaminomethyl]-cyclohexylmethyl}-4,5-dihydro-1H-imidazole-4-carboxylic acid methyl ester]
- inhibition at 1 µM (human μ-opiate receptor; Table 2, Examples 11-161): 96%

Compound: CCCCC1(C(=O)OC)N=CN(Cc2ccccc2)C1CC1CCC(C(c2ccc(Cl)cc2)N(C)C)CC1 (centres unmarked) [Example 114, 1-benzyl-4-butyl-5-{4-[(4-chlorophenyl)-dimethylaminomethyl]-cyclohexylmethyl}-4,5-dihydro-1H-imidazole-4-carboxylic acid methyl ester]
- inhibition at 1 µM (human μ-opiate receptor; Table 2, Examples 11-161): 86%

Compound: CN(C)C(c1cccs1)C1CCC(CC=O)CC1 (centres unmarked) [Example 10d, {4-[dimethylamino-thiophen-2-yl-methyl]-cyclohexyl}-acetaldehyde]
- inhibition at 1 µM (human μ-opiate receptor; Table 1, aldehydes): 79%
